We go through eight molecules from patent US7384912B2, “Treatment of bone disorders with skeletal anabolic drugs” (Osteotrophin, LLC, priority 2002, dated 2008).

Data set [1] concerns patients with osteoporosis. To be noted: cited from earlier work.
Data set [2] has as its target T1, PTH/PTHrP receptors in human renal cortical membranes (RCM) (Homo sapiens, UniProt Q03431).
T1 sequence (Q03431 27-593): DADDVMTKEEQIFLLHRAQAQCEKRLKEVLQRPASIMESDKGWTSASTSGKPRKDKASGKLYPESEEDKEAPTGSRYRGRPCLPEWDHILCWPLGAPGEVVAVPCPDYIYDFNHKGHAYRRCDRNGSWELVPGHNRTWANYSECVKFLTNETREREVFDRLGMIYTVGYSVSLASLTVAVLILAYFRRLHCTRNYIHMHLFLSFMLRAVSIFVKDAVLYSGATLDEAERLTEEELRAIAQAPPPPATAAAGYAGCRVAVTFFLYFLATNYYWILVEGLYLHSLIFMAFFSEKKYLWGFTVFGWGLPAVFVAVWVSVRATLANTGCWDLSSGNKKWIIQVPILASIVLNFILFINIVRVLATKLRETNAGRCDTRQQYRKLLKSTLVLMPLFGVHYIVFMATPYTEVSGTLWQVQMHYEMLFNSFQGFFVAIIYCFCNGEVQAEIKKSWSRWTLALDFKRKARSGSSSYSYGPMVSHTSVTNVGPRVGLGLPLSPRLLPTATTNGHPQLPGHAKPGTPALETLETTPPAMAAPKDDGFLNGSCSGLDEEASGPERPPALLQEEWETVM
Description: Competition binding of 125I-(Tyr36)hPTHrP-(1-36)NH2 to human renal cortical membranes. The procedure: All steps were performed in the presence of the following protease inhibitors: aprotinin [10 Kallikrein inhibitor units (KIU/ml], pepstatin (5 μg/ml), leupeptin (45 μg/ml), and phenylmethanesulfanylfluoride (10 μg/ml). Normal human kidney cortex was from four separate nephrectomy specimens removed for localized transitional cell carcinoma, renal cell carcinoma, or benign cysts. Renal function in all individuals was normal as assessed by serum creatinine and pyelography. Membranes were pooled, aliquoted, and stored at −70° C. for later use.
Human RCM were added to a final concentration of 90 μg/ml. […] The incubation time of 30 min was used for subsequent equilibrium binding competition studies.
(§1) Statistical differences were assessed by paired and unpaired two-tailed Student's t test.

For data set [3], the system named is ovariectomized (OVX) rats. The data set is described as follows: Bone mass measurements in ovariectomized rats. It is filed as in vivo, rat. Further details: Left Femur Length: unit not given here. The conditions noted are these: 40 μg/kg/day s.c. once daily.
Data set [4] relates to ovariectomized (OVX) rats. The data set is described as follows: Bone histomorphometry of the right proximal tibia in ovariectomized rats. Also on record: Trabecular Number Tb.N.: unit not given here. The class given is in vivo, rat. To be noted: for Apposition Rate MAR / Bone Formation Rate BFR/BS / Mineralizing Surface MS/BS / Osteoclast Surface Oc.PM / Resorbing Surface E.PM / Trabecular Area Tb.A. / Trabecular Number Tb.N. / Trabecular Space Tb.Sp. / Trabecular Thickness Tb.Th.: 40 μg/kg/day s.c. once daily.

The subject of data set [5] is adenylate cyclase in SaOS-2 intact cells. Description: Adenylate cyclase assay in SaOS-2 intact cells. It is filed as cell-based, human. To be noted: 15° C., 60 min. The method, then:
Adenylate cyclase-stimulating activity was examined in confluent SAOS-2 cells as previously described for ROS 17/2.8 cells (Merendino et al., Science 231:388-390, (1986)), with the following modification. The intact cell assay was conducted at 15° C., the same conditions employed for binding to intact SaOS-2 cells (vide supra). […] Dose response curves for each peptide were thus generated using 60 min incubations at 15° C. under binding assay conditions.
as §1

Data set [6] has as its system ovariectomized (OVX) rats. The data set is described as follows: Biomechanical measures of strength in ovariectomized rats. It is filed as in vivo, rat. The conditions noted are these: 40 μg/kg/day s.c. once daily.
Where [7] appears, read: two to three years of administration.

Like-named read-outs stand apart in the source and are kept apart here. Marks after values point to notes of the source that are not given here. No end group written: not given here.

`O=C(c1ccc(OCCN2CCCCC2)cc1)c1c(-c2ccc(O)cc2)sc2cc(O)ccc12` [raloxifene]: the “increase in lumbar spine bone mineral density” value in data set [1] (setting [7]) is on record as about 3%.

As to “SVSEMQLMHNLGEHRHTVERQDWLQMKLQDVHSA-NH2 [cPTH-(1-34)NH2, Chicken PTH-(1-34)amide]”, the half-maximal inhibitory concentration (IC50) (commonly the concentration needed to halve the response being measured) in data set [2] (human RCM, 30° C., 30 min, read-out: Binding (IC50) Kidney membranes) worked out at 21.5 ± 8.5 nM.

For PTH(1-84), in data set [1] (doses of approximately 40 micrograms), the “hypercalcemia, serum calcium” value is on record as “up to 15 mg/dl”.

As for `[Ca+2]` [calcium], the “increase in lumbar spine bone mineral density” value in data set [1] (setting [7]) is about 2%.

Consider hPTH-(1-34), for which, in data set [3] (30 days), the “Left Femur BMC” value is on record as 0.340 ± 0.011^a,c, the “Left Femur BMD” value was 0.200 ± 0.004^a, the “Left Femur Length” value came out at 34.9 ± 0.3 and the “Left Femur X Area” value was 1.68 ± 0.04^c. In data set [3] (30 days), the “Radius Ash Weight” value is 60 ± 1^c mg and the “Whole Body BMC” value is listed as 64 ± 3^c. For the same molecule, in data set [3] (90 days), the “Left Femur BMC” value was 0.401 ± 0.010^a,c, the “Left Femur BMD” value was 0.232 ± 0.005^a,c, the “Left Femur Length” value is listed as 35.7 ± 0.2^c and the “Left Femur X Area” value is 1.73 ± 0.03^c. In addition, in data set [3] (90 days), the “Radius Ash Weight” value is reported as 66 ± 1^a,c mg and the “Whole Body BMC” value is 69 ± 3^c. In addition, in data set [3] (180 days), the “Left Femur BMC” value is given as 0.451 ± 0.012^a,c, the “Left Femur BMD” value is given as 0.234 ± 0.004^a,c, the “Left Femur Length” value is on record as 35.6 ± 0.3^c and the “Left Femur X Area” value is listed as 1.84 ± 0.04^a,c. Further, in data set [3] (180 days), the “Radius Ash Weight” value is reported as 72 ± 2^a,c mg and the “Whole Body BMC” value is on record as 71 ± 3^c. For the same molecule, in data set [4] (30 days), the “Apposition Rate MAR” value is on record as 2.4 ± 0.1^c μm/d, the “Bone Formation Rate BFR/BS” value is recorded as 1.18 ± 7^a,c μm/d, the “Mineralizing Surface MS/BS” value is reported as 49 ± 2^a,c % and the “Osteoclast Surface Oc.PM” value is on record as 2.3 ± 0.6%. Besides, in data set [4] (30 days), the “Resorbing Surface E.PM” value is recorded as 8.6 ± 1.2%, the “Trabecular Area Tb.A.” value is given as 19 ± 2^a %, the “Trabecular Number Tb.N.” value was 2.3 ± 0.1 and the “Trabecular Space Tb.Sp.” value is reported as 367 ± 28^a,c Φm. In data set [4] (30 days), the “Trabecular Thickness Tb.Th.” value is recorded as 81 ± 5^a,c Φm. In data set [4] (90 days), the “Apposition Rate MAR” value is 3.0 ± 0.1^a,c μm/d, the “Bone Formation Rate BFR/BS” value was 1.23 ± 4^a,c μm/d, the “Mineralizing Surface MS/BS” value was 41 ± 1^a,c % and the “Osteoclast Surface Oc.PM” value worked out at 2.6 ± 0.5%. Further, in data set [4] (90 days), the “Resorbing Surface E.PM” value was 10.6 ± 1.3^c %, the “Trabecular Area Tb.A.” value is 38 ± 3^a,c %, the “Trabecular Number Tb.N.” value came to 2.4 ± 0.2 and the “Trabecular Space Tb.Sp.” value is on record as 274 ± 34^a Φm. In addition, the “Trabecular Thickness Tb.Th.” value in data set [4] (90 days) is given as 158 ± 6^a,c Φm. In data set [4] (180 days), the “Apposition Rate MAR” value is listed as 3.8 ± 0.7^c μm/d, the “Bone Formation Rate BFR/BS” value was 1.53 ± 28^a,c μm/d, the “Mineralizing Surface MS/BS” value is on record as 40 ± 2^a,c % and the “Osteoclast Surface Oc.PM” value came out at 2.0 ± 0.4%. Further, in data set [4] (180 days), the “Resorbing Surface E.PM” value is given as 6.4 ± 1.5%, the “Trabecular Area Tb.A.” value was 38 ± 3^a,c %, the “Trabecular Number Tb.N.” value is 2.3 ± 0.1 and the “Trabecular Space Tb.Sp.” value is listed as 279 ± 29^a Φm. Also, in data set [4] (180 days), the “Trabecular Thickness Tb.Th.” value is recorded as 163 ± 8^a,c Φm. The “bone in the right proximal tibia, photomicrographs” value in data set [4] (90 days of treatment) is listed as “not only restores lost bone but significantly increases trabecular bone volume over Sham”. Also, the half-maximal effective concentration (EC50) (commonly the concentration that produces a half-maximal response) in data set [5] was 1.6 nM. In addition, in data set [1] (at three months (Finkelstein et al.)), the “increase in urinary hydroxyproline and pyridinolines” value is on record as “approximately 200%”. Besides, in data set [1] (at three months (Lindsay et al.)), the “increase in resorption assessed using urinary NIX” value was 25%. In addition, the “increase in lumbar spine bone mineral density” value in data set [1] (multiple studies) is listed as 10-15%. Moreover, in data set [1] (one study (Roe et al.)), the “increase in lumbar spine trabecular bone density by QCT” value is given as at most 80% and the “increase in spine bone mineral density by DXA” value is reported as at most 30%. For the same molecule, in data set [6] (30 days), the “Femur Neck Ultimate Load, (Fu)” value is 139 ± 3^ac N; the “Mid-Femur Cortical Thickness (t)” value is recorded as 0.64 ± 0.02^ac mm; the “Mid-Femur Moment of Inertia (I)” value is 4.5 ± 0.2 mm^4; the “Mid-Femur Stiffness (S)” value is recorded as 571 ± 13 N/mm. In data set [6] (30 days), the “Mid-Femur Toughness (u)” value is given as 6.0 ± 0.3^c MJ/m^3, the “Mid-Femur Ultimate Load (Fu)” value was 185 ± 6^ac N, the “Mid-Femur Ultimate Stress (Su)” value worked out at 229 ± 7 MPa and the “Mid-Femur Work to Failure (U)” value came out at 63 ± 4 mJ. In addition, the “Mid-Femur Young's Modulus (E)” value in data set [6] (30 days) is recorded as 9.1 ± 0.3 Gpa. Besides, in data set [6] (90 days), the “Femur Neck Ultimate Load, (Fu)” value was 146 ± 4^ac N; the “Mid-Femur Cortical Thickness (t)” value is reported as 0.71 ± 0.02^ac mm; the “Mid-Femur Moment of Inertia (I)” value is reported as 4.5 ± 0.1 mm^4; the “Mid-Femur Stiffness (S)” value is on record as 641 ± 14^ac N/mm. For the same molecule, in data set [6] (90 days), the “Mid-Femur Toughness (u)” value is given as 5.7 ± 0.3^a MJ/m^3, the “Mid-Femur Ultimate Load (Fu)” value is listed as 209 ± 4^ac N, the “Mid-Femur Ultimate Stress (Su)” value is 251 ± 7^ac MPa and the “Mid-Femur Work to Failure (U)” value is listed as 62 ± 3^a mJ. Moreover, in data set [6] (180 days), the “Femur Neck Ultimate Load, (Fu)” value is listed as 147 ± 6^ac N; the “Mid-Femur Cortical Thickness (t)” value was 0.89 ± 0.01^ac mm; the “Mid-Femur Moment of Inertia (I)” value is recorded as 5.4 ± 0.3^ac mm^4; the “Mid-Femur Stiffness (S)” value is 814 ± 31^ac N/mm. Moreover, in data set [6] (180 days), the “Mid-Femur Toughness (u)” value was 5.0 ± 0.3^ac MJ/m^3, the “Mid-Femur Ultimate Load (Fu)” value is 241 ± 9^ac N, the “Mid-Femur Ultimate Stress (Su)” value is on record as 251 ± 8^ac MPa and the “Mid-Femur Work to Failure (U)” value is 61 ± 4^ac mJ.

For `CC(C)C[C@H](NC(=O)[C@H](CCCCN)NC(=O)CNC(=O)[C@H](CC(C)C)NC(=O)[C@@H](NC(=O)[C@@H]1CSSC[C@H](N)C(=O)N[C@@H](CO)C(=O)N[C@@H](CC(N)=O)C(=O)N[C@@H](CC(C)C)C(=O)N[C@@H](CO)C(=O)N[C@@H]([C@@H](C)O)C(=O)N1)C(C)C)C(=O)N[C@@H](CO)C(=O)N[C@@H](CCC(N)=O)C(=O)N[C@@H](CCC(=O)O)C(=O)N[C@@H](CC(C)C)C(=O)N[C@@H](Cc1c[nH]cn1)C(=O)N[C@@H](CCCCN)C(=O)N[C@@H](CC(C)C)C(=O)N[C@@H](CCC(N)=O)C(=O)N[C@H](C(=O)N[C@@H](Cc1ccc(O)cc1)C(=O)N1CCC[C@H]1C(=O)N[C@@H](CCCNC(=N)N)C(=O)N[C@H](C(=O)N[C@@H](CC(N)=O)C(=O)N[C@H](C(=O)NCC(=O)N[C@@H](CO)C(=O)NCC(=O)N[C@H](C(=O)N1CCC[C@H]1C(N)=O)[C@@H](C)O)[C@@H](C)O)[C@@H](C)O)[C@@H](C)O` [calcitonin], the “increase in lumbar spine bone mineral density” value in data set [1] (setting [7]) is about 2%.

Regarding vitamin D, the “increase in lumbar spine bone mineral density” value in data set [1] (setting [7]) is about 2%.

B1: bPTH-(1-84) (protein)
chain: AVSEIQFMHNLGKHLSSMERVEWLRKKLQDVHNFVALGASIAYRDGSSQRPRKKEDNVLVESHQKSLGEADKADVDVLIKAKPQ
notes: Bovine full-length parathyroid hormone from the National Hormone and Pituitary Program
With B1, in data set [2] (RCM and SaOS-2 membranes), the “relative affinity less than the amino-terminal analogs” value is on record as “approximately 10 fold”.
